Experimental data: patent US7208517B1, “Endothelin antagonists” (Abbott Labortories, priority 1994, dated 2007)

Tests used:
Format in all cases: in vivo, human
[1] = system: male subjects with hormone refractory prostate cancer; test: Crosslinked N-telopeptide levels of treated subjects; details: subjects treated versus placebo
Method: (§1) Studies were performed on male subjects with asymptomatic hormone refractory prostate cancer with rising PSA levels and on male subjects with symptomatic hormone refractory prostate cancer with rising PSA levels and pain. Subjects in the phase II studies had castrate levels of testosterone, either due to pharmacologic intervention, via leuprolide (Lupron®) or goserelin (Zoladex®), or via surgical castration. Subjects received ABT-627 or placebo. The following tests were conducted:
(§2) ABT-627 was formulated in 2.5 and 10 mg doses. An oral liquid formulation of ABT-627 was also prepared as follows: 1 mg/ml ABT-627, 50% glycerin, 14% alcohol, and water. Matching placebos were also provided.
(§3) Markers of osteoblastic activity were assessed using […]. Bone markers include bone alkaline phosphatase (BAP), deoxypridinoline, and N-telopeptide of Type I collagen. Blood samples were collected prior to dosing on Day 1, Day 42, Day 84, Day 168, and every 28 days after Day 168, with a final collection on the last day of the study.
Cross-linked N-telopeptide levels were determined using the DiaSorin (Stillwater, MN) assay for the quantitative determination of carboxyterminal cross-linked telopeptide of type I collagen (ICTP) in human serum by equilibrium radioimmunoassay (RIA). […] The bound tracer in the pellet was counted with a gamma counter. […]

[2] = system: male subjects with hormone refractory prostate cancer; test: Bone alkaline phosphatase (BAP) levels of treated subjects; details: subjects treated versus placebo
Method: as §1, §2, §3
Bone Alkaline Phosphatase levels were determined using the bone-specific Alkphase-B® assay published by Metra Biosystems (Mountain View, Calif.).

[3] = system: male subjects with hormone refractory prostate cancer; test: Interleukin-6 levels in serum of treated subjects; details: subjects treated versus placebo
Method: as §1, §2
The effect of ABT-627 adminstration on Interleukin-6 levels in human serum samples was determined at Quintiles Laboratories using a sandwich immunoassay. Human serum samples and standards were incubated in microtiter plate wells coated with a monoclonal anti-IL-6 antibody, in the presence of a second monoclonal anti IL-6 antibody, linked to acetylcholinesterase. After incubation, the wells were washed, and the bound enzymatic activity was measured using a chromogenic substrate. The intensity of the color was proportional to the concentration of IL-6 in the sample or standard.

[4] = system: male subjects with hormone refractory prostate cancer; test: Bone scan (bone scan index, skeletal involvement) of treated subjects; details: versus placebo
Method: as §1, §2
Bone scans were performed with an NDA approved, Tc-99m phosphonate type radiopharmaceutical. This technique uses whole body format (skull to feet) so that anterior and posterior images are presented when using a 510 K-approved gamma camera. […] Each site was evaluated against a confidence score of 1 to 5, where 1 is negative, 2 is probably negative, 3 is equivocal, 4 is probably positive, and 5 is definitely positive. […] In addition, in a blinded study, a reference nuclear medicine physician interpreted the bone scans quantitatively as follows: the percent of involved bone was estimated for each individual bone, and the individual bone involvement was summed to calculate a global percent bone scan index (BSI). […]

[5] = system: male subjects with hormone refractory prostate cancer; test: Prostate specific antigen (PSA) level assay in serum of treated subjects; details: subjects treated with placebo or 2.5 mg or 10 mg
Method: as §1, §2
A number of recognized or putative biochemical markers of disease progression have been used to monitor treatment of individuals with prostate cancer. […]
The effect of ABT-627 administeration on prostate specific antigen (PSA) levels in human subject serum samples was determined using the procedure described in the Chiron Diagnostics ACS: Centaur PSA2 Assay. […]
Briefly, a subject population was treated with a placebo or 2.5 mg or 10 mg of ABT-627. […] A direct relationship exists between the amount of PSA present in the patient sample and the RLU's (relative light units) detected.

CCCCCN(CCCC)C(=O)CN1C[C@H](c2ccc3c(c2)OCO3)[C@@H](C(=O)O)[C@@H]1c1ccc(OC)cc1 [ABT-627]
Crosslinked N-telopeptide levels (AUC, FIG. 4) [1]: Crosslinked N-telopeptide levels decreased | BAP levels (AUC, FIG. 5) [2]: BAP levels decreased | average change in baseline for Interleukin-6 (AUC, FIG. 1) [3]: the average change in baseline for Interleukin-6 was lower | proportion of total skeletal involvement by bone scan (FIG. 6) [4]: a decrease in the proportion of total skeketal involvement | rate of increase of PSA in serum (AUC, FIG. 2) [5]: rate of increase of PSA in the serum samples decreases
